Data as given in PMC5817852 (The Open Medicinal Chemistry Journal, 2018).
Where two headings read alike, the source gives them in different places.

Tests used:
[1] = tested on: PC3 prostate cancer cell line; experiment: qHTS cell viability screen (Cell Titer Glo), PC3; format: cell-based; conditions: read-out: CC50 PC3
[2] = tested on: MDA-MB-231 breast cancer cell line; experiment: qHTS cell viability screen (Cell Titer Glo), MDA-MB-231; format: cell-based
[3] = tested on: HT29 colorectal carcinoma; experiment: qHTS cell viability screen (Cell Titer Glo), HT29; format: cell-based
[4] = tested on: BJ cells, normal human foreskin fibroblast cell line; experiment: BJ cell cytotoxicity counter screen; conditions: read-out: EC50 BJ (cytotoxicity); BJ normal human foreskin fibroblasts; confidence intervals in parentheses
Source text: (§1) Most analogs in the presented series are lipophilic while also containing a positively charged amine. Lipophilic basic amines can accumulate in cell membranes if their lipophilic atom groups form favorable non-polar contacts with lipid chains while their charged amine is interacting with fatty acid head groups. Such association with lipids can lead to cytotoxicity through membrane destabilization. Therefore, we evaluated a number of representative compounds against BJ cells, a normal human foreskin fibroblast cell line, where cytotoxicity was determined at 10 µM drug concentration, as described previously.
(§2) minimum locked at 0 and 100 respectively.
(§3) children with ALL in relapse.
(§4) foreskin fibroblast cell line (BJ).
(§5) Table 2. […] SSA: Sulindac sulfide

[5] = BJ cell cytotoxicity counter screen; conditions: human
Source text: as §1, §2, §3, §4, §5

[6] = tested on: REH cells (precursor B-cell ALL); experiment: Additional cancer cell line panel, REH; format: cell-based, human; conditions: Homo sapiens, REH, read-out: EC50 REH
[7] = PC3 prostate, 72 hours, cell viability Cell Titer Glo
[8] = MDA-MB-231 breast, 96 hours, cell viability Cell Titer Glo, read-out: CC50 MDA-MB-231
[9] = HT29 colorectal carcinoma, 72 hours, cell viability Cell Titer Glo, read-out: CC50 HT29
[10] = 72 h, PC3 prostate, 72 hours, cell viability Cell Titer Glo
[11] = Homo sapiens, MDA-MB-231, 96 h, MDA-MB-231 breast, 96 hours, cell viability Cell Titer Glo, read-out: CC50 MDA-MB-231
[12] = Homo sapiens, HT-29, 72 h, HT29 colorectal carcinoma, 72 hours, cell viability Cell Titer Glo, read-out: CC50 HT29
[13] = BJ cells (normal human foreskin fibroblast cell line)

| Compound | CC50 [1, 7] [µM] | CC50 [2, 8] [µM] | CC50 [3, 9] [µM] | CC50 [1, 10] [µM] | melting point [°C] | CC50 [2, 11] [µM] | CC50 [3, 12] [µM] | other results |
| --- | --- | --- | --- | --- | --- | --- | --- | --- |
| CSc1ccc(/C=C2/C(C)=C(CNS(=O)(=O)c3ccc(C)cc3)c3cc(F)ccc32)cc1 [Compound 37] | > 50 | 20.5 ± 5.18 | 8.08 ± 0.6 |  |  |  |  |  |
| CSc1ccc(/C=C2/C(C)=C(CCNCc3ccco3)c3cc(F)ccc32)cc1 [Compound 8] | 9.94 ± 0.77 | 7.77 ± 0.54 | 4.27 ± 0.33 |  |  |  |  | EC50 [4]: > 7.57 µM |
| CCS(=O)(=O)NCC1=C(C)/C(=C/c2cc(OC)c(OC)c(OC)c2)c2ccc(F)cc21 [Compound 42] |  |  |  | 15.1 ± 1.84 | 132 to 134 | 6.58 ± 1.39 | 15.6 ± 5.56 |  |
| CC1=C(CCNCc2ccccc2)c2cc(F)ccc2/C1=C\c1ccc(S(C)(=O)=O)cc1 [Compound 12] |  |  |  | 7.02 ± 0.48 | 96 to 98 | 4.52 ± 0.77 | 3.39 ± 0.28 |  |
| CSc1ccc(/C=C2/C(C)=C(CNS(C)(=O)=O)c3cc(F)ccc32)cc1 [Compound 34] |  |  |  | 20.2 ± 3.2 | 159 to 160 | 9.06 ± 2.26 | 7.43 ± 0.48 | EC50 [5, 13]: > 22.7 µM |
| COc1cc(/C=C2/C(C)=C(CN(Cc3ccc4ccccc4c3)Cc3ccc4ccccc4c3)c3cc(F)ccc32)cc(OC)c1OC [Compound 58] |  |  |  | > 50 | 95 to 97 | > 50 | > 50 |  |
| COc1cc(/C=C2/C(C)=C(CNS(=O)(=O)c3ccccc3)c3cc(F)ccc32)cc(OC)c1OC [Compound 43] | 40.9 ± 16.8 | 16.3 ± 3.96 | 43.8 ± 23 |  |  |  |  |  |
| CSc1ccc(/C=C2/C(C)=C(CN)c3cc(F)ccc32)cc1 [Compound 16] |  |  |  | 33.6 ± 6.59 |  | 19.3 ± 2.12 | 16 ± 6.08 |  |
| COc1cc(/C=C2/C(C)=C(CN)c3cc(F)ccc32)cc(OC)c1OC [Compound 17] |  |  |  | 29.7 ± 4.49 | 108 to 110 | 15.3 ± 4.44 | 14.6 ± 2.42 |  |
| COc1cc(/C=C2/C(C)=C(CNC(=O)c3ccco3)c3cc(F)ccc32)cc(OC)c1OC [Compound 27] | > 50 | > 50 | > 50 |  |  |  |  |  |
| CSc1ccc(/C=C2/C(C)=C(CNC(=O)[C@@H](N)CO)c3cc(F)ccc32)cc1 [Compound 22] |  |  |  | 6.03 ± 0.41 | 146 to 148 | 7.43 ± 0.87 | 5.98 ± 0.24 | EC50 [5, 13]: > 22.7 µM |
| CSc1ccc(/C=C2/C(C)=C(CNC(=O)c3ccco3)c3cc(F)ccc32)cc1 [Compound 19] | 39.8 ± 6.81 | 41.2 ± 7.6 | 33.2 ± 3.43 |  |  |  |  |  |
| CSc1ccc(/C=C2/C(C)=C(CN(CCc3ccccc3)CCc3ccccc3)c3cc(F)ccc32)cc1 [Compound 53] | > 50 |  |  |  |  |  |  | CC50 [2]: > 50 µM; CC50 [3]: > 50 µM |
| COc1ccc(CN(CC2=C(C)/C(=C/c3cc(OC)c(OC)c(OC)c3)c3ccc(F)cc32)Cc2ccc(OC)cc2)cc1 [Compound 59] | > 50 |  |  |  |  |  |  | CC50 [2]: > 50 µM; CC50 [3]: > 50 µM |
| CSc1ccc(/C=C2/C(C)=C(CN(Cc3ccc(N(C)C)cc3)Cc3ccc(N(C)C)cc3)c3cc(F)ccc32)cc1 [Compound 51] | > 50 |  |  |  |  |  |  | CC50 [2]: > 50 µM; CC50 [3]: > 50 µM |
| CSc1ccc(/C=C2/C(C)=C(CCNC(=O)c3ccco3)c3cc(F)ccc32)cc1 [Compound 14] |  |  |  | 8.92 ± 0.83 | 168 to 170 | 16.8 ± 3.2 | 9.24 ± 1.18 | EC50 [5, 13]: > 7.57 µM |
| COc1cc(/C=C2/C(C)=C(CNS(=O)(=O)c3cccc4ccccc34)c3cc(F)ccc32)cc(OC)c1OC [Compound 45] | > 50 | > 50 | > 50 |  |  |  |  |  |
| CCS(=O)(=O)NCC1=C(C)/C(=C/c2ccc(SC)cc2)c2ccc(F)cc21 [Compound 35] |  |  |  | 22.6 ± 3.25 | 131 to 133 | 11.9 ± 2.61 | 8.33 ± 1.64 |  |
| COc1cc(/C=C2/C(C)=C(CN(Cc3ccccc3)Cc3ccccc3)c3cc(F)ccc32)cc(OC)c1OC [Compound 55] | > 50 |  |  |  |  |  |  | CC50 [2]: > 50 µM; CC50 [3]: > 50 µM |
| CSc1ccc(/C=C2/C(C)=C(CNC(=O)CN)c3cc(F)ccc32)cc1 [Compound 21] | 7.27 ± 0.31 | 7.3 ± 0.62 | 5.49 ± 0.21 |  |  |  |  | EC50 [4]: > 22.7 µM |
| CSc1ccc(/C=C2/C(C)=C(CN(Cc3ccc4ccccc4c3)Cc3ccc4ccccc4c3)c3cc(F)ccc32)cc1 [Compound 52] | > 50 |  |  |  |  |  |  | CC50 [2]: > 50 µM; CC50 [3]: > 50 µM |
| CSc1ccc(/C=C2/C(C)=C(CNC(=O)Cc3ccccc3)c3cc(F)ccc32)cc1 [Compound 18] |  |  |  | 18.9 ± 9.71 |  | 4.06 ± 1.97 | 3.56 ± 1.25 |  |

| Compound | CC50 [1, 7] [µM] | CC50 [2, 8] [µM] | CC50 [3, 9] [µM] | CC50 [1, 10] [µM] | melting point [°C] | CC50 [2, 11] [µM] | CC50 [3, 12] [µM] | other results |
| --- | --- | --- | --- | --- | --- | --- | --- | --- |
| CSc1ccc(/C=C2/C(C)=C(CNS(=O)(=O)c3cccc4ccccc34)c3cc(F)ccc32)cc1 [Compound 38] |  |  |  | > 50 | 94 to 95 | 38.9 ± 10.3 | 17 ± 3.73 |  |
| CSc1ccc(/C=C2/C(C)=C(CCNCCN3CCCCC3)c3cc(F)ccc32)cc1 [Compound 9] | 4.78 ± 0.2 | 3.73 ± 0.21 | 1.81 ± 0.06 |  |  |  |  | EC50 [4]: > 7.57 µM |
| CSc1ccc(/C=C2/C(C)=C(CCNCc3ccccc3)c3cc(F)ccc32)cc1 [Compound 7] | > 50 | 46.5 ± 1.92 | 21.8 ± 2.29 |  |  |  |  | EC50 [4]: > 7.57 µM |
| COc1cc(/C=C2/C(C)=C(CNC(=O)[C@@H](N)CC(C)C)c3cc(F)ccc32)cc(OC)c1OC [Compound 31] |  |  |  |  |  |  |  | CC50 ([1]; 72 h): 12 ± 1.47 µM; EC50 [5]: > 22.7 µM; CC50 ([2]; Homo sapiens, MDA-MB-231, 96 h, read-out: CC50 MDA-MB-231): 8.87 ± 1.38 µM; EC50 [6]: 16 µM; CC50 ([3]; Homo sapiens, HT-29, 72 h, read-out: CC50 HT29): 5.21 ± 0.39 µM |
| CSc1ccc(/C=C2/C(C)=C(CNS(=O)(=O)c3ccc4ccccc4c3)c3cc(F)ccc32)cc1 [Compound 39] |  |  |  | > 50 | 152 to 154 | 12.9 ± 2.39 | 25.6 ± 5.91 |  |
| COc1cc(/C=C2/C(C)=C(CNS(C)(=O)=O)c3cc(F)ccc32)cc(OC)c1OC [Compound 41] | 18.9 ± 2.47 | 12.9 ± 1.79 | 20 ± 4.86 |  |  |  |  |  |
| CC1=C(CCNCc2ccccc2)c2cc(F)ccc2/C1=C\c1ccc([S+](C)[O-])cc1 (centres unmarked) [Compound 11] |  |  |  | 41.5 ± 5 |  | 48.6 ± 7.85 | 15.1 ± 1.42 |  |
| COc1cc(/C=C2/C(C)=C(CNC(C)=O)c3cc(F)ccc32)cc(OC)c1OC [Compound 28] |  |  |  | 23.3 ± 2.61 | 183 to 185 | 5.77 ± 1.55 | 6.44 ± 1.4 |  |
| COc1cc(/C=C2/C(C)=C(CNS(=O)(=O)c3ccc(C)cc3)c3cc(F)ccc32)cc(OC)c1OC [Compound 44] | > 50 | 44.5 ± 25.7 | > 50 |  |  |  |  |  |
| CSc1ccc(/C=C2/C(C)=C(CN(Cc3ccccc3)Cc3ccccc3)c3cc(F)ccc32)cc1 [Compound 48] |  |  |  | > 50 |  | > 50 | > 50 |  |
| COc1cc(/C=C2/C(C)=C(CN(Cc3ccco3)Cc3ccco3)c3cc(F)ccc32)cc(OC)c1OC [Compound 61] | > 50 |  |  |  |  |  |  | CC50 [2]: > 50 µM; CC50 [3]: > 50 µM |
| CSc1ccc(/C=C2/C(C)=C(CCN)c3cc(F)ccc32)cc1 [Compound 13] |  |  |  | 7.46 ± 0.46 |  | 7.2 ± 0.29 | 4.05 ± 0.16 | EC50 [5, 13]: > 7.57 µM |
| COc1cc(/C=C2/C(C)=C(CN(CCc3ccccc3)CCc3ccccc3)c3cc(F)ccc32)cc(OC)c1OC [Compound 60] |  |  |  | > 50 |  | > 50 | > 50 |  |
| CSc1ccc(/C=C2/C(C)=C(CN(Cc3ccc(F)cc3)Cc3ccc(F)cc3)c3cc(F)ccc32)cc1 [Compound 50] | > 50 |  |  |  |  |  |  | CC50 [2]: > 50 µM; CC50 [3]: > 50 µM |
| CSc1ccc(/C=C2/C(C)=C(CNS(=O)(=O)c3cccc4c(N(C)C)cccc34)c3cc(F)ccc32)cc1 [Compound 40] | > 50 | > 50 | 38.4 ± 10.1 |  |  |  |  |  |
| COc1cc(/C=C2/C(C)=C(CNS(=O)(=O)c3cccc4c(N(C)C)cccc34)c3cc(F)ccc32)cc(OC)c1OC [Compound 47] | > 50 | > 50 | > 50 |  |  |  |  |  |
| COc1cc(/C=C2/C(C)=C(CN(Cc3ccc(F)cc3)Cc3ccc(F)cc3)c3cc(F)ccc32)cc(OC)c1OC [Compound 57] | > 50 |  |  |  |  |  |  | CC50 [2]: > 50 µM; CC50 [3]: > 50 µM |
| COc1cc(/C=C2/C(C)=C(CNS(=O)(=O)c3ccc4ccccc4c3)c3cc(F)ccc32)cc(OC)c1OC [Compound 46] |  |  |  | > 50 | 118 to 120 | > 50 | > 50 |  |
| CSc1ccc(/C=C2/C(C)=C(CNS(=O)(=O)c3ccccc3)c3cc(F)ccc32)cc1 [Compound 36] |  |  |  | 39.6 ± 14.8 | 141 to 143 | 17.7 ± 2.1 | 9.94 ± 0.83 |  |
| CSc1ccc(/C=C2/C(C)=C(CN(Cc3ccco3)Cc3ccco3)c3cc(F)ccc32)cc1 [Compound 54] | > 50 |  |  |  |  |  |  | CC50 [2]: 48.8 ± 20.3 µM; CC50 [3]: > 50 µM |
| CSc1ccc(/C=C2/C(C)=C(CCNCCN(C)C)c3cc(F)ccc32)cc1 [Compound 10] |  |  |  | 4.38 ± 0.25 |  | 3.42 ± 1.5 | 1.97 ± 0.18 |  |
